Values of other authors, collected in patent US10711094B2, “Conjugated polymer nanoparticles, methods of using, and methods of making” (KING ABDULLAH UNIVERSITY OF SCIENCE AND TECHNOLOGY, priority 2015, dated 2020).

Details: in ethanol

fluorescence quantum yield (Φfl) of reference dye: 96%
SMILES: O=C(O)c1ccccc1C1=c2cc3c4c(c2Oc2c1cc1c5c2CCCN5CCC1)CCC[N+]=4CCC3.[Cl-] [Rhodamine 101]
